From patent US20050256131A1, “Pharmaceutical active substance combination and the use thereof” (priority 2002, published 2005)
Entries after “also recorded” stand apart in the source; their conditions may differ.

Columns and labels:
[1] = tested on: Parkinson's disease; assay: clinical studies / series of tests on parkinsonian patients; format: in vivo, human; conditions: for influence of additional intake on the effect of nefazodone or trazodone: taken in addition to nefazodone or trazodone; for antidepressant effect in parkinsonian patients: especially those treated in parallel with dopamine-containing medicaments; for necessary dose of dopamine to be taken: parkinsonian patients taking dopamine as supplement; for depot effect / release of the additionally taken dopamine in the patient's body: patients taking dopamine at the same time
Description: The tablets normally comprise the active substance in an amount of 100 mg or 200 mg. […] For example, if a total dose of 500 mg a day is intended, it is possible to take 200 mg in the morning, 200 mg at midday and 100 mg in the evening.
The medicament with the active substance trazodone was administered to the patients in the evening. […] However, to date, for the aforementioned reasons, the patients have been given the dopamine to be administered in the evening in conjunction with a depot composition.

[2] = cited from earlier work; for side effects affecting the nervous system / psychomotor performance: manufacturer's information for use or statements in the literature

CC(=O)Oc1ccccc1C(=O)O [acetylsalicylic acid]
influence of additional intake on the effect of nefazodone or trazodone ([1]; parkinsonian patients): can also assist the mentioned positive effects of nefazodone

Cn1c(=O)c2c(ncn2C)n(C)c1=O [caffeine]
influence of additional intake on the effect of nefazodone or trazodone ([1]; parkinsonian patients): assists the mentioned positive effect of nefazodone

O=C(O)COCCN1CCN(C(c2ccccc2)c2ccc(Cl)cc2)CC1 (centres unmarked) [cetirizine]
therapeutic effect in the treatment of the symptoms of Parkinson's disease ([1]; parkinsonian patients): particularly good effect | influence of additional intake on the effect of nefazodone or trazodone ([1]; parkinsonian patients): enhances the effect of the nefazodone or trazodone | central sedative effect ([2]; compared with other antihistamines, statements in the literature): only a slight central sedative effect | side effects affecting the nervous system / psychomotor performance [2]: reduction in psychomotor performance

CCc1nn(CCCN2CCN(c3cccc(Cl)c3)CC2)c(=O)n1CCOc1ccccc1 [nefazodone, 2-[3-[4-(3-chlorophenyl)-1-piperazinyl]propyl]-5-ethyl-4-(2-phenoxyethyl)-2H-1,2,4-triazol-3(4H)-one]
antidepressant effect in parkinsonian patients [1]: particularly evident | tolerability ([1]; human, in vivo): generally well tolerated | daily dopamine dose as fraction of dose before treatment ([1]; one patient with disease in advanced stage): about one third | therapeutic effect in the treatment of the symptoms of Parkinson's disease ([1]; parkinsonian patients): exceptionally good therapeutic effect | dopamine dose necessary on additional intake, relative to dose previously necessary on treatment with dopamine alone ([1]; parkinsonian patients regularly taking L-dopamine, simultaneous intake of nefazodone): one half or even one third | necessary dose of dopamine to be taken [1]: reduction in the necessary dose of dopamine | side effect of dopamine: uncontrolled motor activity in the patient ([1]; patients on Parkinson's medicaments comprising dopamine): positively influenced | depot effect / release of the additionally taken dopamine in the patient's body [1]: released more slowly | side effects affecting the nervous system / psychomotor performance [2]: impairments of the coordination of movements (ataxia) and slowing of movements

O=c1n(CCCN2CCN(c3cccc(Cl)c3)CC2)nc2ccccn12 [trazodone, 2-[3-[4-(3-chlorophenyl)-1-piperazinyl]propyl]-1,2,4-triazolo[4,3-a]pyridin-3(2H)-one]
antidepressant effect in parkinsonian patients [1]: particularly evident | therapeutic effect in the treatment of the symptoms of Parkinson's disease ([1]; parkinsonian patients): exceptionally good therapeutic effect | tiredness / sleep-promoting effect after intake ([1]; parkinsonian patients): causes a certain tiredness; also recorded: sleep-promoting effect | necessary dose of dopamine to be taken [1]: reduction in the necessary dose of dopamine | depot effect / release of the additionally taken dopamine in the patient's body [1]: causes a depot effect
